Data: patent publication US6989389B2, “Aryl ether substituted imidazoquinolines” (3M Innovative Properties Co., priority 2000, dated 2006)
Like-named read-outs stand apart in the source and are kept apart here.

Test system: Peripheral blood mononuclear cells (PBMC)
Assay: Cytokine Induction in Human Cells (in vitro human blood cell system, IFN and TNF secreted into culture media)
Assay type: cell-based
Set-up: key to Lowest Effective Concentration (μM) Tumor Necrosis Factor / Lowest Effective Concentration (μM) Interferon: *: no induction was seen at any of the tested concentrations
Settings: 18 to 24 hours, tested 30-0.014 μM; for minimal effective concentration: Homo sapiens, PBMC
Excerpt: An in vitro human blood cell system is used to assess cytokine induction. Activity is based on the measurement of interferon and tumor necrosis factor (α) (IFN and TNF, respectively) secreted into culture media as described by Testerman et. al. In “Cytokine Induction by the Immunomodulators Imiquimod and S-27609”, Journal of Leukocyte Biology, 58, 365-372 (September, 1995).
Whole blood from healthy human donors is collected by venipuncture into EDTA vacutainer tubes. Peripheral blood mononuclear cells (PBMC) are separated from whole blood by density gradient centrifugation using Histopaque®-1077. Blood is diluted 1:1 with Dulbecco's Phosphate Buffered Saline (DPBS) or Hank's Balanced Salts Solution (HBSS). The PBMC layer is collected and washed twice with DPBS or HBSS and resuspended at 4×10^6 cells/mL in RPMI complete. The PBMC suspension is added to 48 well flat bottom sterile tissue culture plates (Costar, Cambridge, Mass. or Becton Dickinson Labware, Lincoln Park, N.J.) containing an equal volume of RPMI complete media containing test compound.
The compounds are solubilized in dimethyl sulfoxide (DMSO). The DMSO concentration should not exceed a final concentration of 1% for addition to the culture wells. The compounds are generally tested at concentrations ranging from 30-0.014 μM.
The solution of test compound is added at 60 μM to the first well containing RPMI complete and serial 3 fold dilutions are made in the wells. The PBMC suspension is then added to the wells in an equal volume, bringing the test compound concentrations to the desired range (30-0.014 μM). The final concentration of PBMC suspension is 2×10^6 cells/mL. The plates are covered with sterile plastic lids, mixed gently and then incubated for 18 to 24 hours at 37° C. in a 5% carbon dioxide atmosphere.
Following incubation the plates are centrifuged for 10 minutes at 1000 rpm (˜200×g) at 4° C. The cell-free culture supernatant is removed with a sterile polypropylene pipet and transferred to sterile polypropylene tubes. Samples are maintained at −30 to −70° C. until analysis. The samples are analyzed for interferon (α) by ELISA and for tumor necrosis factor (α) by ELISA or IGEN Assay.
Interferon (α) concentration is determined by ELISA using a Human Multi-Species kit from PBL Biomedical Laboratories, New Brunswick, N.J. Results are expressed in pg/mL.
Tumor necrosis factor (α) (TNF) concentration is determined using ELISA kits available from Biosource International, Camarillo, Calif. Alternately, the TNF concentration can be determined by Origen® M-Series Immunoassay and read on an IGEN M-8 analyzer from IGEN International, Gaithersburg, Md. The immunoassay uses a human TNF capture and detection antibody pair from Biosource International, Camarillo, Calif. Results are expressed in pg/mL.
The table below lists the lowest concentration found to induce interferon and the lowest concentration found to induce tumor necrosis factor for each compound.

[1] = lowest concentration found to induce interferon (α), ELISA, read-out: Lowest Effective Concentration (μM) Interferon
[2] = lowest concentration found to induce tumor necrosis factor (α), ELISA or IGEN assay
[3] = lowest concentration found to induce interferon (α), ELISA
[4] = lowest concentration found to induce tumor necrosis factor (α), ELISA or IGEN assay, read-out: Lowest Effective Concentration (μM) Tumor Necrosis Factor

Row | Structure (SMILES) | minimal effective concentration [1] [µM] | Lowest Effective Concentration (μM) Tumor Necrosis Factor [2] | Lowest Effective Concentration (μM) Interferon [3] | minimal effective concentration [4] [µM]
1 | Cc1ccc(COC(C)Cn2cnc3c(N)nc4ccccc4c32)cc1 (centres unmarked) [Example 50] | 3.33 | * |  | 
2 | CC(Cn1cnc2c(N)nc3ccccc3c21)Oc1ccccc1[N+](=O)[O-] (centres unmarked) [Example 51] | 0.37 | * |  | 
3 | CC(Cn1cnc2c(N)nc3ccccc3c21)OCc1ccc(Cl)cc1 (centres unmarked) [Example 52] | 1.11 | * |  | 
4 | CC(Cn1cnc2c(N)nc3ccccc3c21)OCc1ccc(Cl)c(Cl)c1 (centres unmarked) [Example 53] | 1.11 | * |  | 
5 | CC(Cn1cnc2c(N)nc3ccccc3c21)Oc1ccc([N+](=O)[O-])cc1 (centres unmarked) [Example 54] | 0.12 | * |  | 
6 | Cc1ccc([N+](=O)[O-])c(OCC(C(C)C)n2cnc3c(N)nc4ccccc4c32)c1 (centres unmarked) [Example 55] |  | * | * | 
7 | Cc1ccc([N+](=O)[O-])c(OC(C)Cn2cnc3c(N)nc4ccccc4c32)c1 (centres unmarked) [Example 56] | 1.11 |  |  | 10
8 | CC(C)C(COc1ccccc1[N+](=O)[O-])n1cnc2c(N)nc3ccccc3c21 (centres unmarked) [Example 57] |  |  | * | 30
9 | CC(C)C(COc1ccc([N+](=O)[O-])cc1)n1cnc2c(N)nc3ccccc3c21 (centres unmarked) [Example 58] | 3.33 | * |  | 
10 | CC(C)C(COCc1ccccc1)n1cnc2c(N)nc3ccccc3c21 (centres unmarked) [Example 59] | 1.11 | * |  | 
11 | CC(C)C(COCc1ccc(Cl)cc1)n1cnc2c(N)nc3ccccc3c21 (centres unmarked) [Example 60] | 1.11 | * |  | 
12 | CC(C)C(COCc1cccc(Cl)c1)n1cnc2c(N)nc3ccccc3c21 (centres unmarked) [Example 61] | 3.33 | * |  | 
13 | CC(C)C(COCc1ccc(Cl)c(Cl)c1)n1cnc2c(N)nc3ccccc3c21 (centres unmarked) [Example 62] |  |  | * | 3.33
14 | CC(C)C(COCc1cccc(C(F)(F)F)c1)n1cnc2c(N)nc3ccccc3c21 (centres unmarked) [Example 63] |  | * | * | 
15 | CC(C)C(COCc1ccc(C#N)cc1)n1cnc2c(N)nc3ccccc3c21 (centres unmarked) [Example 64] | 3.33 | * |  | 
16 | CC(C)C(COCc1cccc(C#N)c1)n1cnc2c(N)nc3ccccc3c21 (centres unmarked) [Example 65] | 1.11 | * |  | 
17 | COC(=O)c1ccc(COCC(C(C)C)n2cnc3c(N)nc4ccccc4c32)cc1 (centres unmarked) [Example 66] |  | * | * | 
18 | CC(Cn1cnc2c(N)nc3ccccc3c21)OCc1ccc(C(C)(C)C)cc1 (centres unmarked) [Example 67] |  |  | * | 30
19 | CC(Cn1cnc2c(N)nc3ccccc3c21)OCc1ccc(C(F)(F)F)cc1 (centres unmarked) [Example 68] | 3.33 | * |  | 
20 | CC(Cn1cnc2c(N)nc3ccccc3c21)OCc1cccc2ccccc12 (centres unmarked) [Example 69] | 1.11 | * |  | 
21 | CC(COCc1ccccc1)n1cnc2c(N)nc3ccccc3c21 (centres unmarked) [Example 70] | 0.37 | * |  | 
22 | COC(=O)c1ccc(COCC(C)n2cnc3c(N)nc4ccccc4c32)cc1 (centres unmarked) [Example 71] | 3.33 | * |  | 

Row | Structure (SMILES) | minimal effective concentration [1] [µM] | Lowest Effective Concentration (μM) Tumor Necrosis Factor [2] | Lowest Effective Concentration (μM) Interferon [3] | minimal effective concentration [4] [µM]
23 | Cc1ccc(COCC(C)n2cnc3c(N)nc4ccccc4c32)cc1 (centres unmarked) [Example 72] | 1.11 | * |  | 
24 | CC(COCc1ccc(Cl)cc1)n1cnc2c(N)nc3ccccc3c21 (centres unmarked) [Example 73] | 1.11 | * |  | 
25 | CC(COCc1ccc(C(F)(F)F)cc1)n1cnc2c(N)nc3ccccc3c21 (centres unmarked) [Example 74] | 0.37 | * |  | 
26 | Nc1nc2ccccc2c2c1ncn2CCCCOCc1ccccc1 [Example 75] |  | * | * | 
27 | Cc1cccc(COCCCCn2cnc3c(N)nc4ccccc4c32)c1 [Example 76] | 1.11 | * |  | 
28 | Cc1ccc(COCCCCn2cnc3c(N)nc4ccccc4c32)cc1 [Example 77] | 0.12 | * |  | 
29 | Nc1nc2ccccc2c2c1ncn2CCCCOCc1ccc(C(F)(F)F)cc1 [Example 78] |  | * | * | 
30 | Nc1nc2ccccc2c2c1ncn2CC(OCCCCOc1ccccc1)c1ccccc1 (centres unmarked) [Example 79] |  | * | * | 
31 | CC(n1cnc2c(N)nc3ccccc3c21)C(C)(C)OCc1ccccc1 (centres unmarked) [Example 80] |  | * | * | 
32 | CCC(COCc1ccccc1)n1c(C)nc2c(N)nc3ccccc3c21 (centres unmarked) [Example 81] | 1.11 | * |  | 
33 | CCc1nc2c(N)nc3ccccc3c2n1C(CC)COCc1ccccc1 (centres unmarked) [Example 82] |  | * | * | 
34 | Nc1nc2ccccc2c2c1ncn2COCCOc1ccc([N+](=O)[O-])cc1 [Example 83] | 0.37 | * |  | 
35 | Nc1nc2ccccc2c2c1ncn2COCCOCc1ccccc1 [Example 84] | 0.37 | * |  | 
36 | Cc1ccc(COCCOCn2cnc3c(N)nc4ccccc4c32)cc1 [Example 85] | 0.37 | * |  | 
37 | Cc1cccc(COCCOCn2cnc3c(N)nc4ccccc4c32)c1 [Example 86] | 0.37 | * |  | 
38 | N#Cc1ccc(COCCOCn2cnc3c(N)nc4ccccc4c32)cc1 [Example 87] | 1.11 | * |  | 
39 | N#Cc1cccc(COCCOCn2cnc3c(N)nc4ccccc4c32)c1 [Example 88] | 0.37 |  |  | 30
40 | CCCCc1nc2c(N)nc3c(c2n1CCOCc1cccc(Cl)c1)CCCC3 [Example 89] | 0.37 |  |  | 10
41 | CCCCc1nc2c(N)nc3c(c2n1CCOCc1ccc(C)cc1)CCCC3 [Example 90] | 0.12 |  |  | 10
42 | CCCCc1nc2c(N)nc3c(c2n1CCOCc1ccc(C(F)(F)F)cc1)CCCC3 [Example 91] | 0.37 |  |  | 10
43 | CCCCc1nc2c(N)nc3c(c2n1CCOCc1cccc(C(F)(F)F)c1)CCCC3 [Example 92] | 3.33 |  |  | 3.33
